{"source": "patent US10206860B2", "about": "“Biguanide preservation of precipitated calcium carbonate” (Colgate-Palmolive Company, priority 2009, dated 2019)", "test": "Association of PHMB with PCC after drying (drum dryer)", "format": "physicochemical", "details": "only water is evaporated", "description": "Although PHMB is water soluble, with the drying process used for PCC (a drum dryer), only water is evaporated; the PHMB remains associated with the PCC."}
{"substance": "poly[(hexamethylene)biguanide] [PHMB]", "values": [{"measurement": "Association of PHMB with the PCC after the drying process", "value": "remains associated with the PCC after the drying process"}]}
